Reference: the supplement of paper PMC11061612

Key:
Assay in all cases: combination Emax (second highest fraction inhibited in the dose matrix, 72 h); higher = more inhibition; extreme values may be limits of the assay
[1] = test system: SAS (Oral Cavity Carcinoma)
In short: (§1)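 Bliss excess equals the observed combination effect minus the expected value EA + EB − EA·EB, where EA and EB are the effects of each agent alone. Combination Emax is the second-highest inhibition within the matrix. Inhibition was scaled from CellTiter-Glo 2.0 luminescence, with 0 set by vehicle wells and 1 by blank wells, after 72 hours of two-drug dosing of cells plated in 1536-well plates.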

[2] = test system: TGBC1TKB (Biliary Tract Carcinoma)
In short: as §1

MPP-89 (Mesothelioma) = test system: MPP-89 (Mesothelioma)
In short: as §1

[3] = test system: SW1710 (Bladder Carcinoma)
In short: as §1

BE2-M17 (Neuroblastoma) = test system: BE2-M17 (Neuroblastoma)
In short: as §1

[4] = test system: Hs-746T (Gastric Carcinoma)
In short: as §1

[5] = test system: L-428 (Hodgkin's Lymphoma)
In short: as §1

[6] = test system: ESS-1 (Other Solid Carcinomas)
In short: as §1

BPH-1 (Non-Cancerous) = test system: BPH-1 (Non-Cancerous)
In short: as §1

[7] = test system: WSU-NHL (B-Cell Non-Hodgkin's Lymphoma)
In short: as §1

[8] = test system: HH (T-Cell Non-Hodgkin's Lymphoma)
In short: as §1

[9] = test system: YAPC (Pancreatic Carcinoma)
In short: as §1

[10] = test system: LCLC-97TM1 (Non-Small Cell Lung Carcinoma)
In short: as §1

[11] = test system: HuH-7 (Hepatocellular Carcinoma)
In short: as §1

[12] = test system: NCI-H209 (Small Cell Lung Carcinoma)
In short: as §1

[13] = test system: KMRC-20 (Kidney Carcinoma)
In short: as §1

[14] = test system: CAL-33 (Oral Cavity Carcinoma)
In short: as §1

[15] = test system: SW1573 (Lung Adenocarcinoma)
In short: as §1

[16] = test system: LNZTA3WT4 (Low Grade Glioma)
In short: as §1

CAL-72 (Osteosarcoma) = test system: CAL-72 (Osteosarcoma)
In short: as §1

Compound	combination Emax [1]	combination Emax [2]	combination Emax (MPP-89 (Mesothelioma))	combination Emax [3]	combination Emax (BE2-M17 (Neuroblastoma))	combination Emax [4]	combination Emax [5]	combination Emax [6]	combination Emax (BPH-1 (Non-Cancerous))	combination Emax [7]	combination Emax [8]	combination Emax [9]	combination Emax [10]	combination Emax [11]	combination Emax [12]	combination Emax [13]	combination Emax [14]	combination Emax [15]	combination Emax [16]	combination Emax (CAL-72 (Osteosarcoma))
C=CCn1c(=O)c2cnc(Nc3ccc(N4CCN(C)CC4)cc3)nc2n1-c1cccc(C(C)(C)O)n1 [AZD1775] + O=C(c1cc(Cc2n[nH]c(=O)c3ccccc23)ccc1F)N1CCN(C(=O)C2CC2)CC1 [Olaparib] (first compound max 1 µM, partner max 10 µM)	0.577	0.258	0.508	0.383	0.462	0.591	0.842	1	0.488	1	0.443	0.432	0.774	0.304	0.922	0.567	0.721	0.317	0.806	0.756
CC1(C)CCC(CN2CCN(c3ccc(C(=O)NS(=O)(=O)c4ccc(NCC5CCOCC5)c([N+](=O)[O-])c4)c(Oc4cnc5[nH]ccc5c4)c3)CC2)=C(c2ccc(Cl)cc2)C1 [Venetoclax] + CN(C)CCCOc1ccc(-c2ccc3ncc4c(c3c2)n(C2CCOCC2)c(=O)n4C)cn1 [AZD0156] (first compound max 1 µM, 7x7, partner max 1 µM)	0.256	0.244	0.408	0.239	0.238	0.226	0.176	0.93	0.254	0.811	0.18	0.175	0.105	0.26	0.528	0.201	0.178	0.201	0.4	0.687
CCN(CCO)CCCOc1ccc2c(Nc3cc(CC(=O)Nc4cccc(F)c4)[nH]n3)ncnc2c1 [AZD2811] + C[C@@H]1COCCN1C2=NC(=NC(=C2)C3(CC3)[S@](=N)(=O)C)C4=C5C=CNC5=NC=C4 [AZD6738] (first compound max 1 µM, 7x7, partner max 10 µM)	0.83	0.383	0.646	0.398	0.741	0.582	0.78	0.97	0.4	0.967	0.179	0.288	0.842	0.293	0.913	0.596	0.936	0.266	0.754	0.843
NC1(C(=O)N[C@@H](CCO)c2ccc(Cl)cc2)CCN(c2ncnc3[nH]ccc23)CC1 [Capivasertib] + COc1nnc2ccc(N3CCC(c4ccc(OCCN5CCN(C)C(=O)[C@H]5C)cc4)CC3)nn12 [AZD5153] (first compound max 10 µM, 7x7, partner max 1 µM)	0.801	0.39	0.495	0.587	0.696	0.599	0.742	0.738	0.691	1	0.439	0.309	0.805	0.518	0.539	0.398	0.749	0.409	0.57	0.481
CN(CCO)CC[C@H](CSc1ccccc1)Nc1ccc(S(=O)(=O)NC(=O)c2ccc(N3CCC([C@@H](O)c4ccccc4-c4ccc(Cl)cc4)CC3)cc2)cc1S(=O)(=O)C(F)(F)F [AZD4320] + Cn1cnc2c(F)c(Nc3ccc(Br)cc3Cl)c(C(=O)NOCCO)cc21 [Selumetinib] (first compound max 1 µM, 7x7, partner max 3 µM)	0.83	0.679	0.399	0.315	0.852	0.77	0.737	0.851	0.784	0.885	0.3	0.194	0.489	0.55	1	0.261	0.701	0.575	0.329	0.51
CC1(C)CCC(CN2CCN(c3ccc(C(=O)NS(=O)(=O)c4ccc(NCC5CCOCC5)c([N+](=O)[O-])c4)c(Oc4cnc5[nH]ccc5c4)c3)CC2)=C(c2ccc(Cl)cc2)C1 [Venetoclax] + Cn1cnc2c(F)c(Nc3ccc(Br)cc3Cl)c(C(=O)NOCCO)cc21 [Selumetinib] (first compound max 1 µM, 7x7, partner max 3 µM)	0.368	0.167	0.159	0.216	0.635	0.242	0.137	0.864	0.572	0.745	0.132	0.145	0.458	0.122	0.436	0.217	0.266	0.0752	0.308	0.403
COc1cccc2c1C(=O)c1c(O)c3c(c(O)c1C2=O)C[C@@](O)(C(=O)CO)C[C@@H]3O[C@H]1C[C@H](N)[C@H](O)[C@H](C)O1 [Doxorubicin] + Cc1cc2ncnn2cc1Nc1ncc2c(n1)n(C1CCOCC1)c(=O)n2C [AZD7648] (first compound max 1 µM, 7x7, partner max 10 µM)	0.921	0.366	0.734	0.665	0.862	0.737	0.937	1	0.951	1	0.297	0.381	0.6	0.23	0.993	0.524	0.873	0.533	0.647	0.663
Cc1c2c(nn1C)CSCc1cc(n(C)n1)CSc1cc(c3ccccc3c1)OCCCc1c(C(=O)O)n(C)c3c-2c(Cl)ccc13 [AZD5991] + CCN(CCO)CCCOc1ccc2c(Nc3cc(CC(=O)Nc4cccc(F)c4)[nH]n3)ncnc2c1 [AZD2811] (first compound max 1 µM, 7x7, partner max 1 µM)	0.268	0.192	0.248	0.228	0.905	0.257	0.31	0.733	0.873	0.92	0.728	0.238	0.722	0.219	0.967	0.312	0.911	0.321	0.256	0.473
Cn1cnc2c(F)c(Nc3ccc(Br)cc3Cl)c(C(=O)NOCCO)cc21 [Selumetinib] + CC(C)n1c(=O)n(C)c2cnc3cc(F)c(-c4ccc(OCCCN5CCCCC5)nc4)cc3c21 [AZD1390] (first compound max 10 µM, 7x7, partner max 0.3 µM)	0.408	0.152	0.0892	0.196	0.508	0.411	0.0975	0.246	0.487	0.205	0.198	0.193	0.528	0.275	0.0904	0.131	0.755	0	0.226	0.165
NC1(C(=O)N[C@@H](CCO)c2ccc(Cl)cc2)CCN(c2ncnc3[nH]ccc23)CC1 [Capivasertib] + CC(=O)c1c(C)c2cnc(Nc3ccc(N4CCNCC4)cn3)nc2n(C2CCCC2)c1=O [Palbociclib] (first compound max 10 µM, 7x7, partner max 10 µM)	0.575	0.344	0.382	0.447	0.463	0.588	0.436	0.593	0.518	0.899	0.426	0.281	0.583	0.23	0.603	0.372	0.499	0.382	0.562	0.481
COc1nnc2ccc(N3CCC(c4ccc(OCCN5CCN(C)C(=O)[C@H]5C)cc4)CC3)nn12 [AZD5153] + CC1(C)CCC(CN2CCN(c3ccc(C(=O)NS(=O)(=O)c4ccc(NCC5CCOCC5)c([N+](=O)[O-])c4)c(Oc4cnc5[nH]ccc5c4)c3)CC2)=C(c2ccc(Cl)cc2)C1 [Venetoclax] (first compound max 1 µM, 7x7, partner max 1 µM)	0.754	0.293	0.497	0.291	0.621	0.512	0.8	0.63	0.745	0.978	0.406	0.384	0.685	0.442	0.727	0.452	0.402	0.43	0.344	0.495
CN(CCO)CC[C@H](CSc1ccccc1)Nc1ccc(S(=O)(=O)NC(=O)c2ccc(N3CCC([C@@H](O)c4ccccc4-c4ccc(Cl)cc4)CC3)cc2)cc1S(=O)(=O)C(F)(F)F [AZD4320] + C[C@@H]1COCCN1C2=NC(=NC(=C2)C3(CC3)[S@](=N)(=O)C)C4=C5C=CNC5=NC=C4 [AZD6738] (first compound max 1 µM, 7x7, partner max 10 µM)	0.902	0.666	0.794	0.705	0.93	0.782	0.956	0.992	0.441	0.968	0.404	0.251	0.87	0.725	1	0.721	0.964	0.555	0.804	0.932
